Active and inactive are the calls of the source.
Key:
[1] = molecular target: Protein disulfide-isomerase (Homo sapiens, UniProt P07237); test: PDI inhibitors, insulin aggregation turbidity, dose response, biochemical, absorbance, cherry-picked samples (AID 602350); assay type: functional
[2] = test system: Streptococcus sp. 'group A'; test: growth inhibition of control SK(-) GAS strain, dose response, counter-screen for streptokinase expression inhibitor project, luminescence, kanamycin, BacTiterGlo, confirmation (AID 1900); assay type: functional, organism-based
Streptokinase A = molecular target: T1, Streptokinase A (Streptococcus pyogenes serotype M1, UniProt P10520); test: S. pyogenes streptokinase expression inhibitors, potency, dose response, plasminogen activation absorbance, OD405 (AID 1914); assay type: functional, Streptococcus pyogenes M1 GAS;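 further: secreted streptokinase activity via plasminogen activation per viability signal from cell pellet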
T1 sequence (P10520 whole entry): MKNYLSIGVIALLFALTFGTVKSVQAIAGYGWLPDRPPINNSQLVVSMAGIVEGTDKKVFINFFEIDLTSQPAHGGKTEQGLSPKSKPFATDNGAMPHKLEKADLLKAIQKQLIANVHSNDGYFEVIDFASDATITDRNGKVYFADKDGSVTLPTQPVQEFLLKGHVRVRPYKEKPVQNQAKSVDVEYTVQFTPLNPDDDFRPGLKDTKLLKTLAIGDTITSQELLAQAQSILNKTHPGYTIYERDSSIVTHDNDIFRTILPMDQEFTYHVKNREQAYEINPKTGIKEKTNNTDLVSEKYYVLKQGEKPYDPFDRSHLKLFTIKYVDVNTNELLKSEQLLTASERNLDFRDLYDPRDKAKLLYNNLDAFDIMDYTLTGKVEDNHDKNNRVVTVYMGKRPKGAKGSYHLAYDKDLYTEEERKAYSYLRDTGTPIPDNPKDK

[3] = inhibitors of intracellular T. cruzi replication, confirmation, NIH3T3 host cells, beta-gal luminescence (AID 2044); assay type: functional, cell-based;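 further: intracellular parasites grown in NIH/3T3 mouse fibroblasts as host cells; luminescent beta-galactosidase reporter signal from transgenic T. cruzi replicating inside host cells; inhibitors lower the luminescence signal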
[4] = cytotoxicity toward NIH3T3 fibroblasts, dose response, counter-screen, cell-based, ATP luminescence, mouse fibroblasts (AID 2010); assay type: functional;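 further: cells exposed to compound for about 90 hours before reading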
Streptococcus = test: Group A Streptococcus viability loss, dose response, counter-screen for streptokinase expression inhibitor project, luminescence, BacTiterGlo (AID 1915); assay type: functional, organism-based;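 further: potency for reduction of bacterial viability or growth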
[5] = molecular target: Glucose-6-phosphate 1-dehydrogenase (Homo sapiens, UniProt P11413); test: human G6PD enzyme inhibitors, dose response, selectivity assay for P. falciparum G6PD inhibitor project, biochemical, fluorescence (AID 504792); assay type: functional
CHO = test: cytotoxicity in TLR9-MyD88 CHO cells, dose response, cytotoxicity control for TLR9-MyD88 binding inhibitor project, cell-based, luminescence (AID 588339); assay type: functional, hamster; conditions: Cricetulus griseus;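 further: CHO cells stably coexpressing TLR9 and MyD88 fusions from primary screen; compound exposure lasted 48 hours before viability readout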
[6] = molecular target: Heat shock protein HSP 90-alpha (Homo sapiens, UniProt P07900); assay type: functional, organism-based
Beta Lactamase = Beta Lactamase (Pseudomonas aeruginosa, UniProt Q932Y6); test: beta-lactamase reporter inhibitor potency, dose response, artefact control for TLR9-MyD88 binding inhibitor project, BLA reporter cells, FRET fluorescence (AID 588341); assay type: cell-based;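 further: cell based assay in CHO-K1 cells stably expressing beta-lactamase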
Melanocortin receptor 4 = Melanocortin receptor 4 (Homo sapiens, UniProt P32245); test: MC4R antagonist potency on cAMP, dose response, cell-based, TR-FRET, biased antagonists (AID 602298); assay type: functional;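 further: antagonist potency against agonist-stimulated cAMP production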
[7] = nonselective inhibitors of cellular cAMP signaling, dose response, counter-screen for MC4R biased antagonist project, cell-based, TR-FRET cAMP detection (AID 602305); assay type: functional;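 further: U2OS cells stimulated with forskolin near its EC80 as the cAMP inducer; potency is for inhibition of forskolin-stimulated cAMP signaling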
[8] = molecular target: Dual specificity protein kinase CLK2 (Homo sapiens, UniProt P49760); assay type: functional
[9] = molecular target: Tyrosine-protein kinase JAK2 (Homo sapiens, UniProt O60674); assay type: functional;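 further: JAK2 tested as one member of a kinase panel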
[10] = molecular target: Serine/threonine-protein kinase TBK1 (Homo sapiens, UniProt Q9UHD2); test: Navigating the Kinome. Panel member name: TBK1; assay type: functional
[11] = molecular target: Proto-oncogene tyrosine-protein kinase receptor Ret (Homo sapiens, UniProt P07949); assay type: functional;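 further: measured within a kinome-wide profiling panel, RET as the panel member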
[12] = molecular target: Tyrosine-protein kinase receptor TYRO3 (Homo sapiens, UniProt Q06418); assay type: functional;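 further: TYRO3 value obtained as one member of a kinome-wide profiling panel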
[13] = molecular target: Serine/threonine-protein kinase D3 (Homo sapiens, UniProt O94806); assay type: functional;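 further: determined within a kinase panel screen, with PRKCN as the panel member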
[14] = molecular target: Death-associated protein kinase 3 (Homo sapiens, UniProt O43293); assay type: functional;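 further: measured as one member of a kinome-wide profiling panel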
Aurora kinase A = Aurora kinase A (Homo sapiens, UniProt O14965); assay type: functional;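 further: value from the Navigating the Kinome kinase panel profiling, panel entry STK6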
[15] = molecular target: Serine/threonine-protein kinase PAK 4 (Homo sapiens, UniProt O96013); assay type: functional;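 further: value obtained within a kinome profiling panel in which PAK4 was one of the panel members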
[16] = molecular target: Fibroblast growth factor receptor 1 (Homo sapiens, UniProt P11362); assay type: functional
[17] = molecular target: Casein kinase I isoform alpha (Homo sapiens, UniProt P48729); assay type: functional
[18] = molecular target: Serine/threonine-protein kinase TAO1 (Homo sapiens, UniProt Q7L7X3); assay type: functional
[19] = molecular target: Glycogen synthase kinase-3 alpha (Homo sapiens, UniProt P49840); assay type: functional;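 further: GSK3A result taken from a broad kinome-wide kinase panel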
[20] = molecular target: Mitogen-activated protein kinase kinase kinase kinase 2 (Homo sapiens, UniProt Q12851); assay type: functional;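 further: measured as one member of a kinome-wide kinase panel, with MAP4K2 as the panel entry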
[21] = molecular target: Platelet-derived growth factor receptor beta (Homo sapiens, UniProt P09619); assay type: functional;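 further: value comes from a kinome panel, with PDGFRB tested as one panel member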
[22] = molecular target: Vascular endothelial growth factor receptor 2 (Homo sapiens, UniProt P35968); assay type: functional
[23] = molecular target: Cyclin-dependent kinase 5 (Homo sapiens, UniProt Q00535); assay type: functional;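 further: CDK5 measured as one member of a kinase profiling panel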
[24] = molecular target: Dual specificity tyrosine-phosphorylation-regulated kinase 1B (Homo sapiens, UniProt Q9Y463); test: Navigating the Kinome. Panel member name: DYRK1B; assay type: functional
[25] = molecular target: cAMP-dependent protein kinase catalytic subunit PRKX (Homo sapiens, UniProt P51817); assay type: functional
[26] = molecular target: Platelet-derived growth factor receptor alpha (Homo sapiens, UniProt P16234); test: Navigating the Kinome. Panel member name: PDGFRA; assay type: functional
[27] = molecular target: Leucine-rich repeat serine/threonine-protein kinase 2 (Homo sapiens, UniProt Q5S007); assay type: functional;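 further: value from a broad kinome-wide panel profiling study in which LRRK2 was one of the kinases tested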
[28] = molecular target: Cyclin-dependent kinase 7 (Homo sapiens, UniProt P50613); assay type: functional;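 further: value comes from a kinome-wide kinase profiling panel in which CDK7 is one member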
[29] = molecular target: Vascular endothelial growth factor receptor 1 (Homo sapiens, UniProt P17948); assay type: functional;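 further: measured within a kinome-wide profiling panel, FLT1 as the panel member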
[30] = molecular target: Glycogen synthase kinase-3 beta (Homo sapiens, UniProt P49841); assay type: functional;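 further: value comes from a broad kinome profiling panel, with GSK3B as the panel member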
[31] = molecular target: Cyclin-dependent kinase 9 (Homo sapiens, UniProt P50750); assay type: functional;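 further: value from the CDK9 entry of a kinome-spanning kinase panel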
[32] = molecular target: cAMP-dependent protein kinase catalytic subunit alpha (Homo sapiens, UniProt P17612); assay type: functional
[33] = molecular target: Dual specificity protein kinase CLK4 (Homo sapiens, UniProt Q9HAZ1); assay type: functional
[34] = molecular target: Mitogen-activated protein kinase kinase kinase kinase 4 (Homo sapiens, UniProt O95819); assay type: functional
[35] = molecular target: Macrophage colony-stimulating factor 1 receptor (Homo sapiens, UniProt P07333); assay type: functional;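 further: value comes from the Navigating the Kinome screening panel, CSF1R member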
[36] = molecular target: Dual specificity tyrosine-phosphorylation-regulated kinase 1A (Homo sapiens, UniProt Q13627); assay type: functional;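 further: measured against DYRK1A as one member of a broad kinome profiling panel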
[37] = molecular target: Inhibitor of nuclear factor kappa-B kinase subunit epsilon (Homo sapiens, UniProt Q14164); test: Navigating the Kinome. Panel member name: IKBKE; assay type: functional
[38] = molecular target: Leukocyte tyrosine kinase receptor (Homo sapiens, UniProt P29376); test: Navigating the Kinome. Panel member name: LTK; assay type: functional

Sequence of Serine/threonine-protein kinase D3 (O94806 whole entry): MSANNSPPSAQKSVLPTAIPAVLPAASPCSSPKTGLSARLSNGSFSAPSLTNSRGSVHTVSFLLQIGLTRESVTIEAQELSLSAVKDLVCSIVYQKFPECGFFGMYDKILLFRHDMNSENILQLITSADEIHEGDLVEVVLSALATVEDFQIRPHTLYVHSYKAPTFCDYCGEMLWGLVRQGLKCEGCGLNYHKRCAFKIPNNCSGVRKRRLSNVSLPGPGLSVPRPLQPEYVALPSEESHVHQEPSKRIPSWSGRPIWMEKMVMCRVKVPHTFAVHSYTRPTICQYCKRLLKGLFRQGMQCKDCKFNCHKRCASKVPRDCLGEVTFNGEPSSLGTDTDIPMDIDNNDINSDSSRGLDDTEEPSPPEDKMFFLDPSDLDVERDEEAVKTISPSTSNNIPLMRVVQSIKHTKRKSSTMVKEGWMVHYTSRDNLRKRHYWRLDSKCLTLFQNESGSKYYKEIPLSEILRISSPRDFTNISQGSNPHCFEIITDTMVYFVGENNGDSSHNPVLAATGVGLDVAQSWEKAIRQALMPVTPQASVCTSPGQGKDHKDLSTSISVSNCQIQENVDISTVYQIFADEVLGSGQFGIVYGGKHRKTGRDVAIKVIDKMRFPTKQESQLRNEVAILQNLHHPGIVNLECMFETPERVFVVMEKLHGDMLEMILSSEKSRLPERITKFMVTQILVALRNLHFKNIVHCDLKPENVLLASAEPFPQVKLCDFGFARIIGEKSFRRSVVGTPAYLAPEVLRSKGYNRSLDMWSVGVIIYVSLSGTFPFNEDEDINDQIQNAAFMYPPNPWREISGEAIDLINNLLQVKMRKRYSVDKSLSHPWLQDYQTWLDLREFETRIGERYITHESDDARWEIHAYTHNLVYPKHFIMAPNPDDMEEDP
Sequence of Cyclin-dependent kinase 5 (Q00535 whole entry): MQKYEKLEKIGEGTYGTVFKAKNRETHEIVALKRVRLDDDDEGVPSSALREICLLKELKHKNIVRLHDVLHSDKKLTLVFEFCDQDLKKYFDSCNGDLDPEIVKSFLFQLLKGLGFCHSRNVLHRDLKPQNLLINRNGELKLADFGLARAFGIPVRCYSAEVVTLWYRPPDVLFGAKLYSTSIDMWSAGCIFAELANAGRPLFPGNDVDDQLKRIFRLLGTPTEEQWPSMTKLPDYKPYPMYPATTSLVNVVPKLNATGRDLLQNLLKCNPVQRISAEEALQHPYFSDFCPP
Sequence of Proto-oncogene tyrosine-protein kinase receptor Ret (P07949 whole entry): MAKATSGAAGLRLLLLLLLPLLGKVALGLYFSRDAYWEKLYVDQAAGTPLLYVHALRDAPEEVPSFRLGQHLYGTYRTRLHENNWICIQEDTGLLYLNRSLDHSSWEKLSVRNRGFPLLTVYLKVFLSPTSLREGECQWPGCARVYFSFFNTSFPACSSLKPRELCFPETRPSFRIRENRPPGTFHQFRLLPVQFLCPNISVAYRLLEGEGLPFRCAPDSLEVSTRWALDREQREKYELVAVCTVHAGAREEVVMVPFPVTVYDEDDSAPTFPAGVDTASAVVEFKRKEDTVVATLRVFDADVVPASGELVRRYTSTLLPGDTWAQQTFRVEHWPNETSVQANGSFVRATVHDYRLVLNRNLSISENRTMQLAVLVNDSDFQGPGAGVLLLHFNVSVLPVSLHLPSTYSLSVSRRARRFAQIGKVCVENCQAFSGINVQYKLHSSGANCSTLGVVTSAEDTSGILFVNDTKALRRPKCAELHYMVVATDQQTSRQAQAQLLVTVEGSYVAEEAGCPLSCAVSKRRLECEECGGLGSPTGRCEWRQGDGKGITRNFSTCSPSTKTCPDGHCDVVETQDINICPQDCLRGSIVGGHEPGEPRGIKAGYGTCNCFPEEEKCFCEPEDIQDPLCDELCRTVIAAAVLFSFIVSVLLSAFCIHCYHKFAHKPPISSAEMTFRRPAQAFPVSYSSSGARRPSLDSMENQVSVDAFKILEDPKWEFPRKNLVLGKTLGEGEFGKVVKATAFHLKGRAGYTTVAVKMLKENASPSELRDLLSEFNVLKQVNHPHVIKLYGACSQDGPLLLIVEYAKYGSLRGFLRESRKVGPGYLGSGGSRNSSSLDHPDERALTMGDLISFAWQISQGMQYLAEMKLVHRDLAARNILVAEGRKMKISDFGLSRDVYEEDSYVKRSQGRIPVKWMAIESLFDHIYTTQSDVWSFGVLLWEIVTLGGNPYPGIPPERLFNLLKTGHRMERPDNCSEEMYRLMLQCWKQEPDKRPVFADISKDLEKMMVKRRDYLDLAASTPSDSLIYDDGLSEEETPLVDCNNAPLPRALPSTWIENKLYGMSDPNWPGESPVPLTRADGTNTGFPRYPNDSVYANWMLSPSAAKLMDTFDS
Sequence of Glycogen synthase kinase-3 alpha (P49840 whole entry): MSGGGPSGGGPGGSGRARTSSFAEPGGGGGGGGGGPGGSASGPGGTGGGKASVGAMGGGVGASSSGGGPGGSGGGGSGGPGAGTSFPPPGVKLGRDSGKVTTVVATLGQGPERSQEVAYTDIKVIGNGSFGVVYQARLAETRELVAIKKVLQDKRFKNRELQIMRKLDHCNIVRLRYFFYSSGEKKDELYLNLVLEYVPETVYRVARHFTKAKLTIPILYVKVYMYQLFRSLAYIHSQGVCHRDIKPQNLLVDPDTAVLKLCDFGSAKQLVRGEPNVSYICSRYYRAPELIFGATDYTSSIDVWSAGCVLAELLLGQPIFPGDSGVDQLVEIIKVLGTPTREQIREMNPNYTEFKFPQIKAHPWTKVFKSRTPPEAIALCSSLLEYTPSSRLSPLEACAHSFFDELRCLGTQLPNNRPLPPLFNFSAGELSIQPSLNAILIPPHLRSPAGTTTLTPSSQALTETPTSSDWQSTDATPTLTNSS
Sequence of Serine/threonine-protein kinase TAO1 (Q7L7X3 whole entry): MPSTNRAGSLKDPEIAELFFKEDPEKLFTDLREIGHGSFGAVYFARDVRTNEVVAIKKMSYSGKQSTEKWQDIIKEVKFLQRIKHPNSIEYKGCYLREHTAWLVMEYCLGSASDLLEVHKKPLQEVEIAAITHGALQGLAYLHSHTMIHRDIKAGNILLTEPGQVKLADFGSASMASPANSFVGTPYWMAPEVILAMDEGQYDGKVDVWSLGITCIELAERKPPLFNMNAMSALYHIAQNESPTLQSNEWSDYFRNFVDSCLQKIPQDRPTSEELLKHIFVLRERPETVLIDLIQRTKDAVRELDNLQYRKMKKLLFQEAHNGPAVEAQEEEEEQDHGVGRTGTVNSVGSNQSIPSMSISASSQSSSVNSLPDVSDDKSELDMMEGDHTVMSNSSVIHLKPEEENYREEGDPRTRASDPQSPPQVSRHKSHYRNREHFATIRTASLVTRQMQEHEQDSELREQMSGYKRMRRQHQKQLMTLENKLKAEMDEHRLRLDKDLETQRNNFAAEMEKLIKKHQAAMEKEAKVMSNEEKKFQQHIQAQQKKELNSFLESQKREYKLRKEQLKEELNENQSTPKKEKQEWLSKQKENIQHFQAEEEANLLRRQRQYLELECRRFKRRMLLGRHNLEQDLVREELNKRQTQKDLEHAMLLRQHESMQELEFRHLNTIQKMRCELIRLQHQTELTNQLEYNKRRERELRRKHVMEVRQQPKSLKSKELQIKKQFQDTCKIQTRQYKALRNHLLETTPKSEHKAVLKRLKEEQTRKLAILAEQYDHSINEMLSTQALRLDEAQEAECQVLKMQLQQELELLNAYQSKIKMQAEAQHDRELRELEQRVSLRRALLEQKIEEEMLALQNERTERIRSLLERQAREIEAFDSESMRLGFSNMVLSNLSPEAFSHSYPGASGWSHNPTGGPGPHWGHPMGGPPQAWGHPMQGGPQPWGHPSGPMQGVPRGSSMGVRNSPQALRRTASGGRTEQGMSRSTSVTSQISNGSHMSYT
Sequence of Dual specificity protein kinase CLK2 (P49760 whole entry): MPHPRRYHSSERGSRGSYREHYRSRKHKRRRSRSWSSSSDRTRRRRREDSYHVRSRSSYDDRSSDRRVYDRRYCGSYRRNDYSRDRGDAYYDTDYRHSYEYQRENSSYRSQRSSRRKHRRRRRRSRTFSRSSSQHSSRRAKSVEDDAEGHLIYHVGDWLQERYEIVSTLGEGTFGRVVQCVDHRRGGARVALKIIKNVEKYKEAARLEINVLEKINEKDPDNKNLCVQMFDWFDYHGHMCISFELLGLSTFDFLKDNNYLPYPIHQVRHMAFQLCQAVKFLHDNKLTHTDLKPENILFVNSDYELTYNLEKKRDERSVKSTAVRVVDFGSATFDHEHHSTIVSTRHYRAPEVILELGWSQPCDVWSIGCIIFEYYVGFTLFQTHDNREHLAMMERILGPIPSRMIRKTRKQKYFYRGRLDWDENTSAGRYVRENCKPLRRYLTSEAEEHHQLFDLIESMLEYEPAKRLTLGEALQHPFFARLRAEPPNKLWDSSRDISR
Sequence of Death-associated protein kinase 3 (O43293 whole entry): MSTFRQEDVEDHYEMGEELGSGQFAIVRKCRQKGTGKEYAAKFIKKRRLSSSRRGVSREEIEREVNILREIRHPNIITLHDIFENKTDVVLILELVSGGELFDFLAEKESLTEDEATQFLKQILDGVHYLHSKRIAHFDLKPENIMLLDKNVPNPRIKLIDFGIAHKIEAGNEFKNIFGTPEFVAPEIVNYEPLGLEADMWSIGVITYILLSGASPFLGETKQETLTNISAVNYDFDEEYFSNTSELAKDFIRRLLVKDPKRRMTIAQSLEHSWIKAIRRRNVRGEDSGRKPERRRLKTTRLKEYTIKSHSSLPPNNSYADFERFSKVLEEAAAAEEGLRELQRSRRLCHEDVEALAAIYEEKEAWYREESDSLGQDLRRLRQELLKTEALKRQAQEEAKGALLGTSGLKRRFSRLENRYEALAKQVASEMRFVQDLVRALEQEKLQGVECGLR
Sequence of Beta Lactamase (Q932Y6 whole entry): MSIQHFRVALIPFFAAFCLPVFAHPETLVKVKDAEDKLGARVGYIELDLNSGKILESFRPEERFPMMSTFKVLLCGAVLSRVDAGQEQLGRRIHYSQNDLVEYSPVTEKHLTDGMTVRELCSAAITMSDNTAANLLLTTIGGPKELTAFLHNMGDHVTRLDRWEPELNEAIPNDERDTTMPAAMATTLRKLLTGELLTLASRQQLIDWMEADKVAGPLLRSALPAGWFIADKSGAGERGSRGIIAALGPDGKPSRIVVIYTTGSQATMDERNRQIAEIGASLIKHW

Cc1noc(C)c1S(=O)(=O)Nc1ccc2c(c1)CC(=O)N([C@H](C)CO)C[C@H](C)[C@H](CN(C)S(=O)(=O)c1ccccc1)O2
AC50 [1]: 19.5 µM (active)

Cc1ccc(NC(=O)c2cc(N3C(=O)C=CC3=O)ccc2N2CCOCC2)cc1Cl
EC50 [2]: 12 µM (active) | EC50 (Streptokinase A): 6.68 µM (active) | EC50 [3]: 2.01 µM (active) | EC50 [4]: 6.37 µM (active) | EC50 (Streptococcus): 13.4 µM (active) | IC50 [5]: 48.1 µM (inactive) | IC50 (CHO): 1.7 µM (active) | AC50 [6]: < 0.195 µM (active) | IC50 (Beta Lactamase): 9.48 µM (active) | IC50 (Melanocortin receptor 4): 8.43 µM (active) | IC50 [7]: 28.6 µM (inactive)

CC(=O)c1ccccc1-c1ncnc2[nH]ccc12
Ki [8]: 20 µM (active) | Ki [9]: 50.1 µM (active) | Ki [10]: 63.1 µM (active) | Ki [11]: 39.8 µM (active) | Ki [12]: 63.1 µM (active) | Ki [13]: 39.8 µM (active) | Ki [14]: 63.1 µM (active) | Ki (Aurora kinase A): > 63.1 µM (inactive) | Ki [15]: 50.1 µM (active) | Ki [16]: 63.1 µM (active) | Ki [17]: 50.1 µM (active) | Ki [18]: 39.8 µM (active) | Ki [19]: 63.1 µM (active) | Ki [20]: 25.1 µM (active) | Ki [21]: 31.6 µM (active) | Ki [22]: 15.8 µM (active) | Ki [23]: 50.1 µM (active) | Ki [24]: 20 µM (active) | Ki [25]: 39.8 µM (active) | Ki [26]: 31.6 µM (active) | Ki [27]: 12.6 µM (active) | Ki [28]: 63.1 µM (active) | Ki [29]: 39.8 µM (active) | Ki [30]: 63.1 µM (active) | Ki [31]: 50.1 µM (active) | Ki [32]: 15.8 µM (active) | Ki [33]: 2.51 µM (active) | Ki [34]: 50.1 µM (active) | Ki [35]: 63.1 µM (active) | Ki [36]: 20 µM (active) | Ki [37]: 100 µM (active) | Ki [38]: 39.8 µM (active)
